Results published in PubChem BioAssay AID2060908 (Molecular Pharmacology Branch, DTP, NCI, 2025).
pIC50: −log10 of the molar value. Values joined by “and” are separate entries in the source; they are usually repeats but may differ in a detail not shown here. Equal values may be shown once.

System: 186277-243-T-J2-PDC complex spheroids, viability
Assay: Anticancer human tumor 186277-243-T-J2-PDC patient-derived colon adenocarcinoma cell line growth inhibition [RAS]
Details: for viability, T/C: stronger effect = lower value; active = viability on the fitted dose curve at most 10% of control; inactive = the rest
Excerpt: RAS pathway inhibitors in Combinations in Complex Spheroids
A high-throughput screen of multi-cell type tumor spheroids was designed to identify active combinations of RAS pathway inhibitors and targeted small molecules. Complex spheroids include a stromal component modeled by human endothelial cells (HUVEC) and fibroblasts modeled by human mesenchymal stem cells (MSCs). The concentration ranges selected for each drug and investigational agent were based upon clinically achievable concentrations if the clinical Cmax of the agent was known.
Compounds. The drugs and investigational agents: abemaciclib (NSC768073), cobimetinib (NSC768068), divarasib (GDC6063, NSC841802), docetaxel (NSC628503), GDC-1971 (RLY-1971, NSC841576), gemcitabine (NSC613327), inavolisib (NSC800729), ipatasertib (NSC767898), KB-0742 (NSC834161), MRTX-1133 (NSC836407), osimertinib (NSC779217), RMC-4630 (NSC839698), RMC-6236 (NSC851965), RMC-6291 (NSC852671), Ro-3306 (NSC812927), sapanisertib (NSC764658), SN-38 (NSC673596), staurosporine (NSC755774), SY5609 (NSC837396), and tovorafenib (DAY101, NSC766906), were obtained from the National Cancer Institute (NCI) Developmental Therapeutics Program Chemical Repository. The FDA-approved anticancer drug set is available from the NCI Developmental Therapeutics Program. […] The stock solutions were prepared in dimethyl sulfoxide (DMSO, Sigma-Aldrich, St. Louis, MO, cat. D2650) at 800-fold the tested concentration and stored at -70 degrees C prior to their use. All drugs and investigational agents were tested over a range starting from a high concentration at or near the clinical Cmax and decreasing in half-log increments. If the clinical Cmax for an agent had not been determined, the highest concentration tested was 10 microM.
Cell Culture. All cells were maintained in an incubator at 37 degrees C and 5% CO2 with 95% humidity. The PDC lines were cultured according to standard operating procedures established by the NCI PDMR. All PDCs were thawed and cultured in Matrigel-coated flasks prepared with a working solution of 1X Ham's F-12 nutrient mix, without supplementation (Invitrogen, Waltham, MA, cat. 11765054), 100 U/mL penicillin-streptomycin (Invitrogen, cat. 15140122), and 2.5% Matrigel (Corning Inc., Corning, NY, cat. 354248) for the first three passages. The 362531-283-R-J2-PDC and 782815-120-R-J1-PDC lines were cultured in 6C/Colon 1B media, which includes advanced DMEM/F-12 (Thermo Fisher Scientific, cat. 12634028), 10 mM HEPES (Thermo Fisher Scientific, cat. 15630080), 1X GlutaMAX supplement (Thermo Fisher Scientific, cat. 35050061), 0.1 mg/mL primocin (InvivoGen, San Diego, CA, cat. ant-pm-2), 10% defined fetal bovine serum, heat inactivated (HyClone Laboratories Inc., Logan, UT, cat. SH30070.03HI), 50% L-WRN conditioned media (ATCC, cat. CRL-3276), 1.25 mM N-Acetyl-L-cysteine (Sigma-Aldrich, cat. A9165), 10 mM nicotinamide (Sigma-Aldrich, cat. N0636), 1X B-27 supplement (Thermo Fisher Scientific, cat. 17504044), 1X N-2 supplement (Thermo Fisher Scientific, cat. 17502048), 50 ng/mL human EGF (Thermo Fisher Scientific, cat. PHG0311), and 10 microM Y-27632 dihydrochloride (Tocris Bioscience, cat. 1254). The K12877-001-R-J1-PDC line was cultured in 6I media, which includes all 6C/Colon 1B media plus 10 ng/mL human FGF-10 (PeproTech, cat. 100-26), 1 ng/mL human FGF-2 (PeproTech, cat. 100-18B), 1 µM prostaglandin E2 (Tocris Bioscience, cat. 2296), […] hydrocortisone (Sigma-Aldrich, cat. H4001), and […] bovine insulin (Sigma-Aldrich, cat. I6634). The K86415-001-R-J1-PDC line was cultured in 6D media, which includes all 6C/Colon 1B media components minus the L-WRN conditioned media. The 485176-168-R4-J1-PDC was cultured in PANC media, which includes all 6C/Colon 1B media plus 100 ng/mL human FGF-10 (PeproTech, cat. 100-26), 500 nM SB-431542 (Selleckchem, cat. S1067), and 10 nM gastrin (Tocris Bioscience, cat. 3006). […]

[1] = curve of first compound, second compound 0.000949 µM
[2] = curve of first compound, second compound 0.003 µM
[3] = curve of first compound, second compound 0.00949 µM
[4] = curve of first compound, second compound 0.03 µM
[5] = curve of first compound, second compound 0.0949 µM
[6] = curve of first compound, second compound 0.3 µM
[7] = second compound 0.000949 µM, first compound 0.0316 µM
[8] = second compound 0.000949 µM, first compound 0.1 µM
[9] = second compound 0.000949 µM, first compound 0.316 µM
[10] = second compound 0.000949 µM, first compound 1 µM
[11] = second compound 0.000949 µM, first compound 3.16 µM
[12] = second compound 0.000949 µM, first compound 10 µM
[13] = second compound 0.003 µM, first compound 0.0316 µM
[14] = second compound 0.003 µM, first compound 0.1 µM
[15] = second compound 0.003 µM, first compound 0.316 µM
[16] = second compound 0.003 µM, first compound 1 µM
[17] = second compound 0.003 µM, first compound 3.16 µM
[18] = second compound 0.003 µM, first compound 10 µM
[19] = second compound 0.00949 µM, first compound 0.0316 µM
[20] = second compound 0.00949 µM, first compound 0.1 µM
[21] = second compound 0.00949 µM, first compound 0.316 µM
[22] = second compound 0.00949 µM, first compound 1 µM
[23] = second compound 0.00949 µM, first compound 3.16 µM
[24] = second compound 0.00949 µM, first compound 10 µM
[25] = second compound 0.03 µM, first compound 0.0316 µM
[26] = second compound 0.03 µM, first compound 0.1 µM
[27] = second compound 0.03 µM, first compound 0.316 µM
[28] = second compound 0.03 µM, first compound 1 µM
[29] = second compound 0.03 µM, first compound 3.16 µM
[30] = second compound 0.03 µM, first compound 10 µM
[31] = second compound 0.0949 µM, first compound 0.0316 µM
[32] = second compound 0.0949 µM, first compound 0.1 µM
[33] = second compound 0.0949 µM, first compound 0.316 µM
[34] = second compound 0.0949 µM, first compound 1 µM
[35] = second compound 0.0949 µM, first compound 3.16 µM
[36] = second compound 0.0949 µM, first compound 10 µM
[37] = second compound 0.3 µM, first compound 0.0316 µM
[38] = second compound 0.3 µM, first compound 0.1 µM
[39] = second compound 0.3 µM, first compound 0.316 µM
[40] = second compound 0.3 µM, first compound 1 µM
[41] = second compound 0.3 µM, first compound 3.16 µM
[42] = second compound 0.3 µM, first compound 10 µM
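Also: spheroids exposed to compounds for 7 days before viability read.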

CC1(C)CCC(Nc2ncc(C(F)(F)F)c(-c3c[nH]c4c(P(C)(C)=O)c(C#N)ccc34)n2)CN1 (stereo not drawn)
inactive: viability, T/C (compound 0.000949 µM) 89.9% [middle of 4 runs] | viability, T/C (compound 0.003 µM) 102% and 101% (2×) and 97% | viability, T/C (compound 0.00949 µM) 99.2% [middle of 4 runs] | viability, T/C (compound 0.0949 µM) 60.8% and 56.4% (2×) and 71.4% | viability, T/C (compound 0.3 µM) 63.9% [middle of 4 runs]
< 6.52 and 6.54 and 6.71: pIC50 (curve of compound)

NC1c2ccccc2OC12CCN(c1cnc3c(N4CCCc5ncccc54)n[nH]c3n1)CC2 (stereo not drawn) + CCn1c(-c2cccnc2C(C)OC)c2c3cc(ccc31)N1CCOC(CC(NC(=O)C(C(C)C)N(C)C(=O)C3(F)CCN(C(=O)C#CC(C)(C)N(C)C)CC3)C(=O)N3CCCC(N3)C(=O)OCC(C)(C)C2)C1
< 5.00: pIC50 [1] | pIC50 [2] | pIC50 [3] | pIC50 [4] | pIC50 [5]
inactive: viability, T/C [7] 84.6% | viability, T/C [8] 102% | viability, T/C [9] 114% | viability, T/C [10] 122% | viability, T/C [11] 109% | viability, T/C [12] 70.3% | viability, T/C [13] 108% | viability, T/C [14] 96.5% | viability, T/C [15] 119% | viability, T/C [16] 119% | viability, T/C [17] 104% | viability, T/C [18] 74.6% | viability, T/C [19] 100% | viability, T/C [20] 110% | viability, T/C [21] 121% | viability, T/C [22] 119% | viability, T/C [23] 104% | viability, T/C [24] 66.9% | viability, T/C [25] 111% | viability, T/C [26] 89% | viability, T/C [27] 117% | viability, T/C [28] 114% | viability, T/C [29] 105% | viability, T/C [30] 76% | viability, T/C [31] 102% | viability, T/C [32] 94.1% | viability, T/C [33] 112% | viability, T/C [34] 91.2% | viability, T/C [35] 83.4% | viability, T/C [36] 60.8% | viability, T/C [37] 94.5% | viability, T/C [38] 88.5% | viability, T/C [39] 75.5% | viability, T/C [40] 65.9% | viability, T/C [41] 54.6% | viability, T/C [42] 38.3%
5.39: pIC50 [6]

C=CC(=O)N1CCN(c2nc(OCC3CCCN3C)nc3c(F)c(-c4nc(N)cc(C)c4C(F)(F)F)c(Cl)cc23)C(C)C1 (stereo not drawn)
< 6.00: pIC50 (compound alone, run of 06/10/2024) | pIC50 (curve of compound)
inactive: viability, T/C (compound 0.0316 µM) 100% [middle of 12 runs]

CC(Nc1ccc2c(c1)OCCn1cc(N3C(=O)OCC3C(F)F)nc1-2)C(N)=O (stereo not drawn) + CCn1c(-c2cccnc2C(C)OC)c2c3cc(ccc31)N1CCOC(CC(NC(=O)C(C(C)C)N(C)C(=O)C3(F)CCN(C(=O)C#CC(C)(C)N(C)C)CC3)C(=O)N3CCCC(N3)C(=O)OCC(C)(C)C2)C1
5.59: pIC50 [5]
5.23: pIC50 [1] | pIC50 [2]
5.25: pIC50 [3]
inactive: viability, T/C [7] 108% | viability, T/C [8] 97.7% | viability, T/C [9] 70.5% | viability, T/C [10] 49.3% | viability, T/C [11] 96.2% | viability, T/C [12] 21.1% | viability, T/C [13] 95.1% | viability, T/C [14] 90.1% | viability, T/C [15] 66.2% | viability, T/C [16] 55.3% | viability, T/C [17] 105% | viability, T/C [18] 21.8% | viability, T/C [19] 78.8% | viability, T/C [20] 94% | viability, T/C [21] 74.3% | viability, T/C [22] 52.1% | viability, T/C [23] 102% | viability, T/C [24] 19.8% | viability, T/C [25] 105% | viability, T/C [26] 91.7% | viability, T/C [27] 65.3% | viability, T/C [28] 48% | viability, T/C [29] 108% | viability, T/C [30] 17.6% | viability, T/C [31] 102% | viability, T/C [32] 91.9% | viability, T/C [33] 59.2% | viability, T/C [34] 38.5% | viability, T/C [35] 97.8% | viability, T/C [36] 12.3% | viability, T/C [37] 96.1% | viability, T/C [38] 66.4% | viability, T/C [39] 47.1% | viability, T/C [40] 25.4% | viability, T/C [41] 86.4% | viability, T/C [42] 7.8%
6.50: pIC50 [6]
5.24: pIC50 [4]
